We go through 17 compounds from patent US9266904B2, “6-bridged heteroaryldihydropyrimidines for the treatment and prophylaxis of hepatitis B virus infection” (priority 2013, dated 2016).

pEC50: −log10 of the molar value. Values after ≈ are worked out from the molar mass of the structure shown. Read-outs that look alike come from different tables or passages of the source.

A short description of data set [1]: Human microsomal clearance assay. The class given is in vitro ADME. Summed up: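 Liver microsomes (0.5 mg/mL protein) were incubated with 1 μM compound at 37 °C, pH 7.4 phosphate, with an NADPH-regenerating system. Samples at 0-30 min were quenched and measured by LC-MS/MS for parent loss. No-NADPH controls were included.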
The nature of data set [2]: Lyophilisation solubility assay (Lysa). The class given is physicochemical. As to conditions: thermodynamic from solid. As to the method: The aqueous solubility is an important physico-chemical property that plays a significant role in various physical and biological processes. It is desirable to have good solubility which enables good permeability and gastric and intestinal absorption, linear dose proportionality, less PK variability, and easy formulation for PD/PK studies. […] Lyophilisation solubility assay (Lysa) is a well adopted high throughput assay to measure compound solubility in industry.
Samples are prepared in duplicate from 10 mM DMSO stock solutions. After evaporation of DMSO with a centrifugal vacuum evaporator, the residue is solved in 0.05 M phosphate buffer (pH 6.5), stirred for one hour and then shook for two hours. After one night, the solution is filtered using a microtiter filter plate and then the filtrate and its 1/10 dilution are then analyzed by direct UV measurement or by HPLC-UV. In addition a four-point calibration curve is prepared from the 10 mM stock solutions and used for the solubility determination of the compounds. The results are in μg/ml. In case the percentage of sample measured in solution after evaporation divided by the calculated maximum of sample amount is bigger than 80% the solubility is reported as bigger than this value.

Data set [3] concerns HBV replication in HepG2.2.15 cells. In words: Anti-HBV activity in vitro in HepG2.2.15 cells (extracellular HBV DNA by qPCR). As to conditions: Hepatitis B virus, HepG2.2.15, Anti-HBV activity in HepG2.2.15 cells; read-out: EC50. The class given is cell-based. Put shortly:
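Constitutively HBV-producing HepG2.2.15 cells were seeded overnight at 37 °C, then treated with half-log serial dilutions of compound (0.5% DMSO final) for five days. Supernatant HBV DNA was extracted and quantified by qPCR; EC50 is the concentration inhibiting HBV replication by 50%.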

One may read the pEC50 as the EC50 on a negative log10 scale, so that one unit is a factor of ten.

`COC(=O)C1=C(CN2[C@H]3CC[C@]2(C(=O)O)CC3(F)F)NC(c2nccs2)=N[C@H]1c1ccc(F)cc1Cl` [Example 148, (1S,4R)-7-[[(4R)-4-(2-chloro-4-fluoro-phenyl)-5-methoxycarbonyl-2-thiazol-2-yl-1,4-dihydropyrimidin-6-yl]methyl]-2,2-difluoro-7-azabicyclo[2.2.1]heptane-4-carboxylic acid] registered a CLh in data set [1] (human, 1 μM, pH 7.4) of 2.3 mL/min/kg. Moreover, the solubility thermodynamic in data set [2] (pH 6.5, aqueous buffer) is above 655 µg/mL. For the same compound, the pEC50 in data set [3] was 7.23.
For `COC(=O)C1=C(CN2[C@H]3C[C@@H](CC(=O)O)C[C@@H]2C(F)(F)C3)NC(c2nccs2)=N[C@H]1c1ccc(F)c(F)c1` [Example 115, 2-[(1S,3R,5R)-8-[[(4S)-4-(3,4-difluoro-phenyl)-5-methoxycarbonyl-2-thiazol-2-yl-1,4-dihydropyrimidin-6-yl]methyl]-6,6-difluoro-8-azabicyclo[3.2.1]octan-3-yl]acetic acid], in that order: 4.6 mL/min/kg, 128 µg/mL (≈ 232 µM) and 6.79.
The compound `COC(=O)C1=C(CN2C3COCC2C(F)(F)[C@@H](CC(=O)O)C3)NC(c2nccs2)=N[C@H]1c1ccc(F)cc1Cl` (stereo partly drawn) [Example 125, 2-[(7R)-9-[[(4R)-4-(2-chloro-4-fluoro-phenyl)-5-methoxycarbonyl-2-thiazol-2-yl-1,4-dihydropyrimidin-6-yl]methyl]-6,6-difluoro-3-oxa-9-azabicyclo[3.3.1]nonan-7-yl]acetic acid] yielded a CLh in data set [1] (human, 1 μM, pH 7.4) of 0 mL/min/kg. Besides, the solubility thermodynamic in data set [2] (pH 6.5, aqueous buffer) amounted to 170 µg/mL (≈ 291 µM). Besides, the pEC50 in data set [3] is 7.58.
For `COC(=O)C1=C(CN2C3COCC2CC(CC(=O)O)C3)NC(c2nccs2)=N[C@H]1c1ccccc1Br` (stereo partly drawn) [Example 134, Endo-2-[9-[[(4R)-4-(2-bromophenyl)-5-methoxycarbonyl-2-thiazol-2-yl-1,4-dihydropyrimidin-6-yl]methyl]-3-oxa-9-azabicyclo[3.3.1]nonan-7-yl]acetic acid], in that order: 1.7 mL/min/kg, above 695 µg/mL and 7.68.
In the same order, the values of `COC(=O)C1=C(CN2[C@@H]3COC[C@H]2CN(C(=O)C(C)(C)C(=O)O)C3)NC(c2nccs2)=N[C@H]1c1ccc(F)cc1Cl` [Example 79, 3-[(1S,5R)-9-[[(4R)-4-(2-chloro-4-fluoro-phenyl)-5-methoxycarbonyl-2-thiazol-2-yl-1,4-dihydropyrimidin-6-yl]methyl]-3-oxa-7,9-diazabicyclo[3.3.1]nonan-7-yl]-2,2-dimethyl-3-oxo-propanoic acid] are 3.5 mL/min/kg, above 745 µg/mL and 6.53.
In the same order, the values of `COC(=O)C1=C(CN2[C@H]3CC[C@]2(C(=O)O)COC3)NC(c2nccs2)=N[C@H]1c1ccc(F)cc1Cl` [Example 81, (1S,5R)-8-[[(4R)-4-(2-chloro-4-fluoro-phenyl)-5-methoxycarbonyl-2-thiazol-2-yl-1,4-dihydropyrimidin-6-yl]methyl]-3-oxa-8-azabicyclo[3.2.1]octane-5-carboxylic acid] are 0 mL/min/kg, above 673 µg/mL and 7.39.
In the case of `COC(=O)C1=C(CN2[C@@H]3COC[C@H]2C[C@H](CC(=O)O)C3)NC(c2nccs2)=N[C@H]1c1ccccc1Br` [Example 76, Exo-2-[(1S,5R)-9-[[(4R)-4-(2-bromophenyl)-5-methoxycarbonyl-2-thiazol-2-yl-1,4-dihydropyrimidin-6-yl]methyl]-3-oxa-9-azabicyclo[3.3.1]nonan-7-yl]acetic acid], the CLh in data set [1] (human, 1 μM, pH 7.4) came out at 3.3 mL/min/kg. This compound gave a solubility thermodynamic in data set [2] (pH 6.5, aqueous buffer) above 706 µg/mL. In addition, the pEC50 in data set [3] was 7.51.
In turn, `CCOC(=O)C1=C(CN2[C@H]3COC[C@@H]2[C@@H](F)[C@H](CC(=O)O)C3)NC(c2nccs2)=N[C@H]1c1ccccc1Cl` [Example 103, 2-[(1R,5R,6S,7S)-9-[[(4R)-4-(2-chlorophenyl)-5-ethoxycarbonyl-2-thiazol-2-yl-1,4-dihydropyrimidin-6-yl]methyl]-6-fluoro-3-oxa-9-azabicyclo[3.3.1]nonan-7-yl]acetic acid] showed a CLh in data set [1] (human, 1 μM, pH 7.4) of 0 mL/min/kg. The compound further showed a solubility thermodynamic in data set [2] (pH 6.5, aqueous buffer) of 345 µg/mL (≈ 613 µM). The pEC50 in data set [3] is 6.56.
In the same order, the values of `CCOC(=O)C1=C(CN2[C@@H]3COC[C@H]2C[C@H](CC(=O)O)C3)NC(c2nccs2)=N[C@H]1c1cccc(F)c1F` [Example 75, Exo-2-[(1S,5R)-9-[[(4R)-4-(2,3-difluorophenyl)-5-ethoxycarbonyl-2-thiazol-2-yl-1,4-dihydropyrimidin-6-yl]methyl]-3-oxa-9-azabicyclo[3.3.1]nonan-7-yl]acetic acid] are 1.0 mL/min/kg, above 656 µg/mL and 7.54.
For `CCOC(=O)C1=C(CN2[C@@H]3COC[C@H]2[C@H](F)[C@@H](CC(=O)O)C3)NC(c2nccs2)=N[C@H]1c1ccccc1Cl` [Example 102, 2-[(1S,5S,6R,7R)-9-[[(4R)-4-(2-chlorophenyl)-5-ethoxycarbonyl-2-thiazol-2-yl-1,4-dihydropyrimidin-6-yl]methyl]-6-fluoro-3-oxa-9-azabicyclo[3.3.1]nonan-7-yl]acetic acid], in that order: 3.0 mL/min/kg, 410 µg/mL (≈ 728 µM) and 7.18.
In data set [1] (human, 1 μM, pH 7.4), `COC(=O)C1=C(CN2C3COCC2C(O)[C@H](CC(=O)O)C3)NC(c2nccs2)=N[C@H]1c1ccc(F)cc1Cl` (stereo partly drawn) [Example 123, 2-[(7S)-9-[[(4R)-4-(2-chloro-4-fluoro-phenyl)-5-methoxycarbonyl-2-thiazol-2-yl-1,4-dihydropyrimidin-6-yl]methyl]-6-hydroxy-3-oxa-9-azabicyclo[3.3.1]nonan-7-yl]acetic acid] yielded a CLh of 3.0 mL/min/kg. Moreover, in data set [2] (pH 6.5, aqueous buffer), the solubility thermodynamic is above 753 µg/mL. The pEC50 in data set [3] is 7.45.
Compound `COC(=O)C1=C(CN2C3COCC2CC(N)(C(=O)O)C3)NC(c2nccs2)=N[C@H]1c1ccc(F)cc1Cl` (stereo partly drawn) [Example 139, 7-amino-9-[[(4R)-4-(2-chloro-4-fluoro-phenyl)-5-methoxycarbonyl-2-thiazol-2-yl-1,4-dihydropyrimidin-6-yl]methyl]-3-oxa-9-azabicyclo[3.3.1]nonane-7-carboxylic acid] came in with a CLh in data set [1] (human, 1 μM, pH 7.4) of 5.1 mL/min/kg. This compound registered a solubility thermodynamic in data set [2] (pH 6.5, aqueous buffer) above 610 µg/mL. Moreover, in data set [3], the pEC50 was 6.76.
`COC(=O)C1=C(CN2C3COCC2CC(C(=O)O)C3)NC(c2nccs2)=N[C@H]1c1ccc(F)cc1Br` (stereo partly drawn) [Example 5, 9-[(R)-6-(2-Bromo-4-fluoro-phenyl)-5-methoxycarbonyl-2-thiazol-2-yl-3,6-dihydro-pyrimidin-4-ylmethyl]-3-oxa-9-aza-bicyclo[3.3.1]nonane-7-carboxylic acid]: the CLh in data set [1] (human, 1 μM, pH 7.4) was 0 mL/min/kg. Also, the solubility thermodynamic in data set [2] (pH 6.5, aqueous buffer) is above 660 µg/mL. Also, the pEC50 in data set [3] was 7.68.
For `COC(=O)C1=C(CN2C3COCC2CC(CC(=O)O)C3)NC(c2nccs2)=N[C@H]1c1ccc(Cl)c(F)c1` (stereo partly drawn) [Example 136, Endo-2-[9-[[(4S)-4-(4-chloro-3-fluoro-phenyl)-5-methoxycarbonyl-2-thiazol-2-yl-1,4-dihydropyrimidin-6-yl]methyl]-3-oxa-9-azabicyclo[3.3.1]nonan-7-yl]acetic acid], in that order: 5.5 mL/min/kg, 485 µg/mL (≈ 883 µM) and 6.99.
In the case of `COC(=O)C1=C(CN2CC3(F)CC2(C(=O)O)C3)NC(c2nccs2)=N[C@H]1c1ccc(F)cc1Cl` [Example 40, 2-[(R)-6-(2-Chloro-4-fluoro-phenyl)-5-methoxycarbonyl-2-thiazol-2-yl-3,6-dihydro-pyrimidin-4-ylmethyl]-4-fluoro-2-aza-bicyclo[2.1.1]hexane-1-carboxylic acid], the CLh in data set [1] (human microsomal clearance) is 1.4 mL/min/kg. The solubility thermodynamic in data set [2] (aqueous buffer, 0.05 M phosphate buffer (pH 6.5), reported as bigger than the value if more than 80% of the sample is in solution, read-out: Lysa) was above 634 µg/mL. Moreover, the pEC50 in data set [3] was 7.49.
`COC(=O)C1=C(CN2C3COCC2CN(C(=O)CO)C3)NC(c2nccs2)=N[C@H]1c1ccc(F)cc1Br` [Example 53, Methyl (4R)-4-(2-bromo-4-fluoro-phenyl)-6-[[7-(2-hydroxyacetyl)-3-oxa-7,9-diazabicyclo[3.3.1]nonan-9-yl]methyl]-2-thiazol-2-yl-1,4-dihydropyrimidine-5-carboxylate] showed a CLh in data set [1] (human, 1 μM, pH 7.4) of 7.0 mL/min/kg. For the same compound, the solubility thermodynamic in data set [2] (pH 6.5, aqueous buffer) was 163 µg/mL (≈ 274 µM). The pEC50 in data set [3] was 7.77.
For `COC(=O)C1=C(CN2[C@@H]3C[C@H](CC(=O)O)C[C@H]2C(F)(F)C3)NC(c2nccs2)=N[C@H]1c1ccc(F)cc1Cl` [Example 86, 2-[(1R,3S,5S)-8-[[(4R)-4-(2-chloro-4-fluoro-phenyl)-5-methoxycarbonyl-2-thiazol-2-yl-1,4-dihydropyrimidin-6-yl]methyl]-6,6-difluoro-8-azabicyclo[3.2.1]octan-3-yl]acetic acid], in that order: 0 mL/min/kg, 149 µg/mL (≈ 262 µM) and 8.70.
